{"source": "patent US11485742B2", "about": "“2-azaspiro[3.4]octane derivatives as M4 agonists” (NOVARTIS AG, priority 2019, dated 2022)", "assay_type_in_all_cases": "cell-based", "key": {"[1]": {"biological_target": "T1, human cloned CHRM3 receptor (Homo sapiens, UniProt P20309)", "T1 construct": "expressed in transfected cells; host or cells: CHO-K1 (M3_CHO)", "T1 sequence (P20309 whole entry)": "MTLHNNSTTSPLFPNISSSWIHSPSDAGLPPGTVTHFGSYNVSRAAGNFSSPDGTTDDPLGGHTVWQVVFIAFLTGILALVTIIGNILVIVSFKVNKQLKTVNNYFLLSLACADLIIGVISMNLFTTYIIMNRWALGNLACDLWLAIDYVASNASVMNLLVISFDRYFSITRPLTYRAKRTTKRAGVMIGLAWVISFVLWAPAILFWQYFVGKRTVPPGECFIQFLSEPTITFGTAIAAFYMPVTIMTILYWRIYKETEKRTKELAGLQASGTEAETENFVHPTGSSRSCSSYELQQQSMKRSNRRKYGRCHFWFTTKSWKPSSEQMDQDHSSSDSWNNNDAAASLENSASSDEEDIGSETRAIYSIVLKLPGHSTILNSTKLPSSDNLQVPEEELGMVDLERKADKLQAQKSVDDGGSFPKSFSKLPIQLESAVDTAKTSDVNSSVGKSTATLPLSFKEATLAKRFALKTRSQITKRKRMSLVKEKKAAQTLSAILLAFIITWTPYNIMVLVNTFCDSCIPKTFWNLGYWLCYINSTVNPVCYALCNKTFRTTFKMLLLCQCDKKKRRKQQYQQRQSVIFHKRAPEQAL", "experiment": "CHRM3 Ca++ Flux Assay (M3_CHO cells, agonist mode)", "conditions": "for M3 FDSS PA %: Percent Activity (PA) measured to EC100 of Carbachol; for EC50: agonist mode, geometric mean if tested more than once, read-out: M3 FDSS EC50", "experimental": "(§1) The above examples were characterized by measuring the intracellular mobilization of Ca^++ ions caused by signaling events mediated by the receptor. The Intra-cellular Calcium flux levels were captured by the highly sensitive Ca^++ indicator, Calcium Assay Kit (BD Biosciences; Catalog Number 640178. The fluorescent activity from all receptors were monitored by the fluorescent imager, FDSS 7000EX (Hamamatsu) over a span of 3 minutes. The change in Calcium flux was readily captured upon activation with the muscarinic orthosteric agonist, Carbachol.\n(§2) CHO-K1 cells stably expressing the human cloned CHRM3 receptor (M3_CHO cells) were grown and maintained in a monolayer culture with F12/HAM (Life Technologies) supplemented with 10% Fetal Bovine Serum, IX Pen-Strep, and 0.4 mg/mL Geneticin in a humidified atmosphere (5% CO2) at 37° C. The cultures were grown to 80-90% confluency in T150 flasks (Corning) and washed with 1×DPBS and lifted with 0.05% Trypsin (Life Technologies). The cells were then spun (1K rpm, 3 minutes) and frozen using Recovery Cell Culture Freezing Media (Gibco Technologies). Cells were stored in liquid nitrogen and thawed a day before the assay. A similar procedure was used for cells stably expressing the human cloned CHRM5 receptor (M5_CHO).\n(§3) Prior to the day of the assay, stable M3_CHO or M5_CHO cells were thawed and plated on Greiner 384 well black TC treated plates at 12K cells/well in F12/DMEM supplemented with 10% FBS (Hyclone) and kept overnight in a humidified atmosphere (5% CO2) at 37° C. The next day, cells were loaded with Ca^++ dye (BD Biosciences) using Loading Buffer (HBSS +Ca/+Mg, 20 mM HEPES, 2.5 mM Probenecid) and placed back in cell incubator for a minimum of 1 hour. After incubation, the dye was replaced with Assay Buffer (HBSS −Ca/−Mg, 20 mM HEPES, 2.5 mM Probenecid) and kept at room temperature in the dark before running on cell imager. The FDSS 7000EX (Hamamatsu) was used to acquire Ca^+− traces from cells treated with 11 point dose response of compounds in triplicate in order to generate dose response curves in agonist mode. All compounds were serially diluted in DMSO then prepared in Assay Buffer for Ca^++ flux studies. The dose response curves were generated from the average of triplicate wells obtained from each data point and used a non-linear regression of four parameter dose response algorithm. The Percent Activity (PA) was measured to EC100 of Carbachol.\n(§4) If an Example was tested more than once in an assay, then the values below represent the geometric mean of the results from each independent experiment."}, "[2]": {"biological_target": "T2, human cloned CHRM5 receptor (Homo sapiens, UniProt P08912)", "T2 construct": "expressed in transfected cells; host or cells: CHO (M5_CHO)", "T2 sequence (P08912 1-532)": "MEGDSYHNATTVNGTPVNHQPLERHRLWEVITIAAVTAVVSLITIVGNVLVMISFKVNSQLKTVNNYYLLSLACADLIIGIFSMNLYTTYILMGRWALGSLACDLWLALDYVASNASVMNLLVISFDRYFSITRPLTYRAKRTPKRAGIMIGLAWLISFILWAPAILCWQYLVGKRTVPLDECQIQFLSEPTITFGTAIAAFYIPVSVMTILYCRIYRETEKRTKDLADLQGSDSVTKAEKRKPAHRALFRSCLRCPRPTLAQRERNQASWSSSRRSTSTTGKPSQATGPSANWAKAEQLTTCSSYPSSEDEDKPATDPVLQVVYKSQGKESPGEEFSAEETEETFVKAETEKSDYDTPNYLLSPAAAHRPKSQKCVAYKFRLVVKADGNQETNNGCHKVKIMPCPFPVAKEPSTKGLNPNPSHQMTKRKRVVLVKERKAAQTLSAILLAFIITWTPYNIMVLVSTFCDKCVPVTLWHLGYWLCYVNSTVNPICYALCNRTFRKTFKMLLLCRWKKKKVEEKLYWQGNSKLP", "experiment": "CHRM5 Ca++ Flux Assay (M5_CHO cells, agonist mode)", "conditions": "for M5 FDSS PA %: Percent Activity (PA) measured to EC100 of Carbachol; for EC50: agonist mode, geometric mean if tested more than once, read-out: M5 FDSS EC50", "experimental": "as §1, §2, §3, §4"}, "[3]": {"biological_target": "T3, Cloned human M1 receptor (CHRM1) (Homo sapiens, UniProt P11229)", "T3 construct": "expressed in transfected cells; host or cells: HEK293", "T3 sequence (P11229 1-460)": "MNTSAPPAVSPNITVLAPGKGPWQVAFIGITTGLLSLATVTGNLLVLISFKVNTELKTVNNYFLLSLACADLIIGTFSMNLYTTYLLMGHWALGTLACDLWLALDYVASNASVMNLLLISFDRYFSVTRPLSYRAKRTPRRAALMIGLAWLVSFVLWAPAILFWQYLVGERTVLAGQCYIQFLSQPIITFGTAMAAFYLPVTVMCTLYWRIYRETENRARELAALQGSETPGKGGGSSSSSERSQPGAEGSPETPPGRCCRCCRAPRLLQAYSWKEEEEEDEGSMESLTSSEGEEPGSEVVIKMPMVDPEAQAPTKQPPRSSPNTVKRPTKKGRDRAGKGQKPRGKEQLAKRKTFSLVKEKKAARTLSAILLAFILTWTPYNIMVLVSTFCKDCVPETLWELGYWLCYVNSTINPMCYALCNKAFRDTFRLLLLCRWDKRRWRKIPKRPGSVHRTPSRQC", "experiment": "CHRM1 Ca++ Flux Assay (HEK293 M1 cells, agonist mode)", "conditions": "for M1 FDSS PA %: Percent Activity (PA); for EC50: geometric mean if tested more than once, read-out: M1 FDSS EC50", "experimental": "as §1\nCloned human M1 receptor (CHRM1) was stably expressed in HEK293 cells and were grown and maintained in a monolayer culture with DMEM/High Glucose (Life Technologies) supplemented with 10% Fetal Bovine Serum, 1×Pen-Strep, and 0.5 mg/mL Geneticin in a humidified atmosphere (5% CO2) at 37° C. The cultures were grown to 90% confluency in T150 flasks (Corning) and washed with 1×DPBS and lifted with 0.05% Trypsin (Life Technologies). The cells were then spun (1K rpm, 3 minutes) and frozen using Recovery Cell Culture Freezing Media (Gibco Technologies). Cells were stored in liquid nitrogen and thawed a day before the assay.\nPrior to the day of the assay, stable HEK293 M1 cells were thawed and plated on 384 well black walled clear bottom TC treated plates (Greiner Cat #781091) at 25K cells/well with DMEM/High Glucose supplemented with 10% FBS (Hyclone) Pen-Strep (Life Technologies) and kept overnight in a humidified atmosphere (5% CO2) at 37° C. The following day, cells were loaded with 20 uL Ca^++ dye (BD Biosciences) using Loading Buffer (HBSS +Ca/+Mg, 20 mM HEPES) and placed back in cell incubator for a minimum of 1 hour. The dye was replaced with 45 μL Assay Buffer (HBSS −Ca/−Mg, 20 mM HEPES) and kept at room temperature prior to running on cell imager. Compounds were prepared in Assay Buffer and 5 uL was added to the cells. The FDSS 7000EX (Hamamatsu) was used to acquire Ca++ traces for 3 minutes from cells treated with 11 point dose in triplicate in order to generate dose response curves in agonist mode. All compounds were serially diluted in DMSO then prepared in Assay Buffer for Ca^++ flux studies. The dose response curves were generated from the average of triplicate wells obtained from each data point and used a non-linear regression of four parameter dose response algorithm. The Percent Activity (PA) was measured to EC100 of Carbachol.\nas §4"}}, "data": [{"smiles": "c1ccc([C@@H]2CCOC2)c(C2CCN([C@@H]3COC4(C3)CN(c3nnco3)C4)CC2)c1", "note": "(single isomer, unassigned) [Example 3B, (S)-2-(1,3,4-oxadiazol-2-yl)-7-(4-(2-((S)-tetrahydrofuran-3-yl)phenyl)piperidin-1-yl)-5-oxa-2-azaspiro[3.4]octane or (S)-2-(1,3,4-oxadiazol-2-yl)-7-(4-(2-((R)-tetrahydrofuran-3-yl)phenyl)piperidin-1-yl)-5-oxa-2-azaspiro[3.4]octane]", "values": [{"measurement": "M3 FDSS PA %", "setting": "[1]", "value": 0, "unit": "%"}, {"measurement": "EC50", "setting": "[1]", "value": "> 25", "unit": "µM"}, {"measurement": "M5 FDSS PA %", "setting": "[2]", "value": 0, "unit": "%"}, {"measurement": "EC50", "setting": "[2]", "value": "> 25", "unit": "µM"}, {"measurement": "M1 FDSS PA %", "setting": "[3]", "value": 82, "unit": "%"}, {"measurement": "EC50", "setting": "[3]", "value": 1.12, "unit": "µM"}]}, {"smiles": "Fc1ccc([C@H]2CCOC2)c(C2CCN([C@@H]3COC4(C3)CN(c3nnco3)C4)CC2)c1", "note": "(single isomer, unassigned) [Example 3E, (S)-7-(4-(5-fluoro-2-((R)-tetrahydrofuran-3-yl)phenyl)piperidin-1-yl)-2-(1,3,4-oxadiazol-2-yl)-5-oxa-2-azaspiro[3.4]octane or (S)-7-(4-(5-fluoro-2-((S)-tetrahydrofuran-3-yl)phenyl)piperidin-1-yl)-2-(1,3,4-oxadiazol-2-yl)-5-oxa-2-azaspiro[3.4]octane]", "values": [{"measurement": "M3 FDSS PA %", "setting": "[1]", "value": 0, "unit": "%"}, {"measurement": "EC50", "setting": "[1]", "value": "> 25", "unit": "µM"}, {"measurement": "M5 FDSS PA %", "setting": "[2]", "value": 0, "unit": "%"}, {"measurement": "EC50", "setting": "[2]", "value": "> 25", "unit": "µM"}, {"measurement": "M1 FDSS PA %", "setting": "[3]", "value": 86, "unit": "%"}, {"measurement": "EC50", "setting": "[3]", "value": 0.695, "unit": "µM"}]}, {"smiles": "Fc1ccc([C@H]2CCOC2)c(C2CCN([C@@H]3COC4(C3)CN(c3nnco3)C4)CC2)c1", "note": "(single isomer, unassigned) [Example 3F, (S)-7-(4-(5-fluoro-2-((R)-tetrahydrofuran-3-yl)phenyl)piperidin-1-yl)-2-(1,3,4-oxadiazol-2-yl)-5-oxa-2-azaspiro[3.4]octane or (S)-7-(4-(5-fluoro-2-((S)-tetrahydrofuran-3-yl)phenyl)piperidin-1-yl)-2-(1,3,4-oxadiazol-2-yl)-5-oxa-2-azaspiro[3.4]octane]", "values": [{"measurement": "M3 FDSS PA %", "setting": "[1]", "value": 0, "unit": "%"}, {"measurement": "EC50", "setting": "[1]", "value": "> 25", "unit": "µM"}, {"measurement": "M5 FDSS PA %", "setting": "[2]", "value": 0, "unit": "%"}, {"measurement": "EC50", "setting": "[2]", "value": "> 25", "unit": "µM"}, {"measurement": "M1 FDSS PA %", "setting": "[3]", "value": 86, "unit": "%"}, {"measurement": "EC50", "setting": "[3]", "value": 0.595, "unit": "µM"}]}, {"smiles": "O[C@H]1CC[C@@H](c2ccc(F)cc2C2CCN([C@@H]3COC4(C3)CN(c3nnco3)C4)CC2)CC1", "note": "(single isomer, unassigned) [Example 3H, (1R,4s)-4-(2-(1-((S)-2-(1,3,4-oxadiazol-2-yl)-5-oxa-2-azaspiro[3.4]octan-7-yl)piperidin-4-yl)-4-fluorophenyl)cyclohexan-1-ol or (1S,4r)-4-(2-(1-((S)-2-(1,3,4-oxadiazol-2-yl)-5-oxa-2-azaspiro[3.4]octan-7-yl)piperidin-4-yl)-4-fluorophenyl)cyclohexan-1-ol]", "values": [{"measurement": "M3 FDSS PA %", "setting": "[1]", "value": 20, "unit": "%"}, {"measurement": "EC50", "setting": "[1]", "value": 10.7, "unit": "µM"}, {"measurement": "M5 FDSS PA %", "setting": "[2]", "value": 0, "unit": "%"}, {"measurement": "EC50", "setting": "[2]", "value": "> 25", "unit": "µM"}, {"measurement": "M1 FDSS PA %", "setting": "[3]", "value": 84, "unit": "%"}, {"measurement": "EC50", "setting": "[3]", "value": 2.41, "unit": "µM"}]}, {"smiles": "O[C@H]1CC[C@@H](c2ccc(F)cc2C2CCN([C@@H]3COC4(C3)CN(c3nnco3)C4)CC2)CC1", "note": "(single isomer, unassigned) [Example 3I, (1R,4s)-4-(2-(1-((S)-2-(1,3,4-oxadiazol-2-yl)-5-oxa-2-azaspiro[3.4]octan-7-yl)piperidin-4-yl)-4-fluorophenyl)cyclohexan-1-ol or (1S,4r)-4-(2-(1-((S)-2-(1,3,4-oxadiazol-2-yl)-5-oxa-2-azaspiro[3.4]octan-7-yl)piperidin-4-yl)-4-fluorophenyl)cyclohexan-1-ol]", "values": [{"measurement": "M3 FDSS PA %", "setting": "[1]", "value": 0, "unit": "%"}, {"measurement": "EC50", "setting": "[1]", "value": "> 25", "unit": "µM"}, {"measurement": "M5 FDSS PA %", "setting": "[2]", "value": 0, "unit": "%"}, {"measurement": "EC50", "setting": "[2]", "value": "> 25", "unit": "µM"}, {"measurement": "M1 FDSS PA %", "setting": "[3]", "value": 76, "unit": "%"}, {"measurement": "EC50", "setting": "[3]", "value": 3.31, "unit": "µM"}]}]}
